From patent US9801922B2, “Compositions and methods of treating cancer” (UNIVERSITY OF IOWA RESEARCH FOUNDATION, priority 2011, dated 2017)
Where “and” joins values, the source holds several entries; their conditions need not be identical. Identical values can stand only once.

What was measured:
[1] = tested on: SUM159 cells; assay: Glutathione analysis (total GSH, GSSG); format: cell-based, human; conditions: for % GSSG: untreated 1.13%
Protocol: FIG. 18: Intracellular GSH&GSSG measured in BSO, DTPP, and AUR exposed SUM159 cells. Asynchronously growing cultures of SUM159 were plated and treated as described in FIG. 1. Cells were harvested and scraped in PBS at 4° C. Whole cell homogenates were used for biochemical analysis of total GSH & GSSG levels. Errors represent Mean ±1 SD of 4 samples from two separate experiments (n=4).
Glutathione analysis: SUM159 Cells were plated and treated with BSO, DTPP and AUR as described above. When cells were grown to 70-80% confluency on 100 mm dishes and scraped in PBS at 4° C., centrifuged, and the cell pellets were frozen at −20° C. until analysis. Samples were thawed and whole homogenates were prepared as described and total glutathione (GSH+GSSG) was determined using a recycling method (Spitz, D. R.; Malcolm, R. R.; Roberts, R. J. Cytotoxicity and metabolism of 4-hydroxy-2-nonenal and 2-nonenal in H2O2-resistant cell lines. Do aldehydic by-products of lipid peroxidation contribute to oxidative stress? Biochem J 267:453-459; 1990; Griffith, O. W. Determination of glutathione and glutathione disulfide using glutathione reductase and 2-vinylpyridine. Anal Biochem 106:207-212; 1980). All biochemical determinations were normalized to the protein content using the method of bicinchoninic acid protein assay.

[2] = tested on: MDA-MB231 human breast cancer cells; assay: Clonogenic cell survival, MDA-MB231; format: cell-based; conditions: for clonogenic cell killing: 100 μM BSO, 1 μM DTPP 24 h, 500 nM AUR 15 min (FIG. 1B)
Protocol: (§1) FIGS. 1A-D: BSO, DTPP and AUR treated SUM159, MDA-MB231 and HMEC Clonogenic survival. In Panel A (SUM 159), B (MDA-MB231) and C(HMEC), 150,000 cells/dish SUM159 or MDA-MB231 and 300,000 cells/dish were plated in 60 mm tissue culture dishes. After 48 hours, cells were given fresh complete HMECs media and treated with 100 μM BSO+/1 μM DTPP for 24 hours. 500 nM AUR were added 15 mins before the trypsinization of cells for clonogenic survival assay. In panel A-C, The error bars represent mean±1 SD of n=1 treatment dishes done in 3 separate experiments where each treatment dish was used to prepare 6-10 replicate cloning dishes for analysis. *p<0.001 as compared to Control. […] Mice growing Sum159 xenograft tumors were treated with 100 μM DTPP in drinking water for 2 weeks followed by i.p. injections of BSO 675 mg/kg followed in 2 hrs with Au 2.7 mg/kg. The day following injections tumors were harvested, digested and stained for ALDH positive cells. Each bar represents an average of at least three tumors. Error bars are SEM. *p<0.05 vs. control.
FIGS. 3A-3B: Clonogenic survival of SUM159 and MDA-MB231 cells treated with BSO, DTPP and AUR in the presence of 20 mM NAC. Asynchronously growing cultures of SUM159 (panel A) and MDA-MB231 (panel B) were plated as described in FIG. 1. After 48 hours, cells were given fresh complete HMECs media and treated with 100 μM BSO+/1 μM DTPP in the presence or absence of 20 mM NAC for 24 hours. 500 nM AUR were added 15 mins before the trypsinization. cells were then collected and plated for clonogenic survival. In panel A, B, The error bars represent mean±1SD of n=1 treatment dishes done in 3 separate experiments where each treatment dish was used to prepare 6-10 replicate cloning dishes for analysis. *p<0.001 as compared to W/O NAC Control. ^p<0.001 as compared to W/NAC Control.
Clonogenic cell survival: To determine whether the DTPP exposure alters the cell proliferation in MDA-MB231, SUM159 and HMECs, 150,000 cells/dish of MDA-MB231 and SUM159 cells, and 300,000 cells/dish HMECs were plated in 60 mm tissue culture dishes. After 48 hours, at 24 hours prior to each clonogenic survival experiment, media in all the dishes were changed to HMECs media and then treated with 100 μM BSO and 1 μM DTPP for 24 h. Cells were treated with AUR for 15 minutes prior to each clonogenic survival experiment. Attached and floating cells in the experimental dishes were collected after trypsinization with 1× trypsin-EDTA (CellGro, Herndon, Va., USA), centrifuged, resuspended in fresh media, and counted using a Coulter counter. Cells were re-plated using appropriate dilutions in their own media and clones were allowed to grow for 14 days in their regular growth media in the presence of 0.1% gentamycin. Cells were then fixed with 70% ethanol and stained with Coomassie blue and colonies of more than 50 cells counted and utilized to calculate clonogenic survival as described (Puck, T. T.; Morkovin, D.; Marcus, P. I.; Cieciura, S. J. Action of x-rays on mammalian cells. II. Survival curves of cells from normal human tissues. J Exp Med 106:485-500; 1957; Spitz, D. R.; Malcolm, R. R.; Roberts, R. J. Cytotoxicity and metabolism of 4-hydroxy-2-nonenal and 2-nonenal in H2O2-resistant cell lines. Do aldehydic by-products of lipid peroxidation contribute to oxidative stress? Biochem J 267:453-459; 1990). […]

[3] = tested on: normal human mammary epithelial cells (HMEC); assay: Clonogenic cell survival, HMEC; format: cell-based; conditions: 100 μM BSO, 1 μM DTPP 24 h, 500 nM AUR 15 min
Protocol: as §1
FIG. 2: BSO and AUR treated SUM159 dose response Clonogenic survival. 150,000 cells/dish SUM159 were plated in 60 mm tissue culture dishes. After 48 hours, cells were given fresh complete HMECs media and treated with 100 μM BSO 24 hours. 500 nM AUR were added 15 mins, 30 mins, 45 mins, 1 hr, 1.5 hrs and 3 hrs before the trypsinization. Cells were then collected and plated for clonogenic survival. […]
Clonogenic cell survival: To determine whether the DTPP exposure alters the cell proliferation in MDA-MB231, SUM159 and HMECs, 150,000 cells/dish of MDA-MB231 and SUM159 cells, and 300,000 cells/dish HMECs were plated in 60 mm tissue culture dishes. […] Attached and floating cells in the experimental dishes were collected after trypsinization with 1× trypsin-EDTA (CellGro, Herndon, Va., USA), centrifuged, resuspended in fresh media, and counted using a Coulter counter. […]

SMILES | effect on glutathione metabolism, in words [1] | clonogenic cell killing [2] | cytotoxicity (clonogenic survival), in words [3] | total GSH, in words ([1]; 24 hours) | % GSSG [1] [%] | cytotoxicity (clonogenic survival), in words ([2]; 100 μM BSO 24 h) | increase in GSSG and % GSSG compared to untreated cells [1] [fold] | GSSG ([1]; untreated 0.06) [nmole GSSG/mg protein] | survival fraction (of control cells) in the presence of NAC ([2]; 1 μM DTPP with 20 mM NAC, 24 hrs) | decrease in cell survival / survival fraction compared to control ([2]; 100 μM BSO and/or 1 μM DTPP for 24 hours)
CC[PH](CC)(CC)[Au][S][C@@H]1O[C@H](COC(C)=O)[C@@H](OC(C)=O)[C@H](OC(C)=O)[C@H]1OC(C)=O [AUR, S-triethylphosphinegold(I)-2,3,4,6-tetra-O-acetyl-1-thio-β-D-glucopyranoside] | not capable of altering the glutathione metabolism | 50%-55% and 50% | did not cause any significant cytotoxicity |  |  |  |  |  |  | 
CCCCS(=N)(=O)CCC(N)C(=O)O [BSO, L-buthionine-[S,R]-sulfoximine, reference compound] |  |  | did not cause any significant cytotoxicity | significant decreases in total GSH | 4.88 | did not cause significantly cytotoxicity |  |  |  | 
CCCCCCCCCC[P+](c1ccccc1)(c1ccccc1)c1ccccc1 [DTPP, Decyl-Triphenylphosphonium] |  | at least 70% | did not cause any significant cytotoxicity |  | 3.65 |  | ~3 | 0.26 | at least 70% | 70%-80%
